# Test results: patent publication US20160022760A1, “METHODS OF TREATING CELIAC DISEASE WITH LARAZOTIDE” (priority 2014, published 2016)
# Where no end group is shown, it is not given here.
# Tests used:
# [1] = Phase IIb study: vital signs, BMI and body weight; assay type: in vivo, human
# Method: Body weight was measured and BMI was calculated based upon screening height and weight at the timings specified in Table 2.
# The Investigator or designee obtained vital signs including temperature, blood pressure (sitting), and pulse at screening and all study visits.
# For continuous variables, changes from baseline to each time point were summarized with the number of nonmissing values, mean, standard deviation, median, and minimum and maximum values. For categorical variables, subject counts and percentages were provided. Results of ECGs were classified as normal; abnormal, not clinically significant, and abnormal, clinically significant, as specified on the ECG page of the eCRF. Summaries were presented by treatment group.
# [2] = system: anti-deamidated gliadin peptide (anti-DGP IgA and IgG); settings: MITT
# From the text: (§1) Blood was collected for determination of serum anti-tTG (IgA and IgG) and anti-DGP (IgA and IgG) at the timings specified in Table 2.
# (§2) Anti-tTG (IgA and IgG) and anti-DGP (IgA and IgG), and change from baseline (Week 0) to Visit 4 (Week 4), End of Treatment Visit 6 (Week 12), and End of Study Visit 7 (Week 16) were summarized descriptively. Week 0 served as baseline.
# [3] = system: anti-tissue transglutaminase (anti-tTG IgA and IgG); settings: each treatment group, MITT
# From the text: as §1, §2
# celiac disease = settings: cited from earlier work
sequence,measurement,setting,value
GGVLVQPG (SEQ ID NO:1) [Larazotide acetate],Mean change from baseline in BMI (range),"[1]; 0.5, 1 and 2 mg groups, Week 4, Week 8, end of treatment, end of follow-up, placebo −0.1 to −0.3",0 to 0.2 kg/m^2
same,Mean change from baseline in body weight (range),"[1]; 0.5, 1 and 2 mg groups, placebo −0.2 to −0.8",-0.1 to 0.5 kg
same,"Mean changes from baseline in vital sign variables versus placebo, in words","[1]; systolic and diastolic blood pressure, pulse rate, body temperature",No clinically meaningful differences
same,"Anti-DGP (IgA and IgG) antibody titers versus placebo, in words",[2]; any Larazotide acetate group,no clinically meaningful post baseline differences
same,"Average anti-DGP antibody titers (IgA) over the study, in words",[2]; each treatment group,remained relatively unchanged
same,"Average anti-tTG antibody titers (IgA) over the study, in words",[3],remained relatively unchanged
same,Average anti-tTG antibody titers (IgA),[3]; throughout the study,< 10 units
same,"Safety profile in previous clinical studies, in words",celiac disease; 0.25 mg to 8 mg TID and up to 36 mg in a single dose,acceptable safety profile
same,"Efficacy of lower doses in previous studies, in words",celiac disease; lower doses 0.25 mg and 1 mg versus 4 mg or 8 mg,more effective compared to placebo than higher doses of 4 mg or 8 mg
